In patent publication US10035771B2 (priority 2013, dated 2018):

Key:
[1] = target: type A botulinum toxin light chain (BoNT/A-LC) (Clostridium botulinum, UniProt P0DPI1); test: biochemical; conditions: for inhibition at 100 µg/mL: read-out: Inhibition rate %
[2] = target: type B botulinum toxin light chain (BoNT/B-LC) (Clostridium botulinum, UniProt P10844); test: biochemical; conditions: for inhibition at 100 µg/mL: read-out: Inhibition rate %
[3] = target: type E botulinum toxin light chain (BoNT/E-LC) (Clostridium botulinum, UniProt Q00496); test: biochemical; conditions: for inhibition at 100 µg/mL: read-out: Inhibition rate %
BoNT/F-LC = BoNT/F-LC (Clostridium botulinum, UniProt A7GBG3); test: biochemical; conditions: for inhibition at 100 µg/mL: read-out: Inhibition rate %
[4] = target: tetanus toxin light chain (TeNt-LC) (Clostridium tetani, UniProt P04958); test: biochemical; conditions: for inhibition at 200 µg/mL: read-out: Inhibition rate %
[5] = target: light chain of type A botulinum toxin (Clostridium botulinum, UniProt P0DPI1); conditions: read-out: Ki value; cited from earlier work
[6] = target: type A botulinum toxin (BoNT/A) (Clostridium botulinum, UniProt P0DPI1); design: species or system Balb/c mice; conditions: mouse, in vivo, ip
[7] = target: type B botulinum toxin (BoNT/B) (Clostridium botulinum, UniProt P10844); design: species or system Balb/c mice; conditions: mouse, in vivo, ip
type B botulinum toxin (BoNT/B), sequence (P10844 2-441 limits assumed): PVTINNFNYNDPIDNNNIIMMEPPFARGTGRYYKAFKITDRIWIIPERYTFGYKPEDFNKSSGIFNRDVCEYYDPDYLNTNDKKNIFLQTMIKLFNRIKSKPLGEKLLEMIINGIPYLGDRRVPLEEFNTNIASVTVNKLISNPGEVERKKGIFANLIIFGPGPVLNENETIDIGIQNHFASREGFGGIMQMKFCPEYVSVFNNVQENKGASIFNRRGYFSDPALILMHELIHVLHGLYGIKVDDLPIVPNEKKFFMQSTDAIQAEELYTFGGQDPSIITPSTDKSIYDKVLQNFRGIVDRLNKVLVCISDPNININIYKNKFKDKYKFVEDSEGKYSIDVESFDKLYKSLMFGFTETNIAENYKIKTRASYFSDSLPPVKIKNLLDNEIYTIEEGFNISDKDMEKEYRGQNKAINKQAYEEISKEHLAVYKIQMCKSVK
type B botulinum toxin (BoNT/B), sequence (P10844 442-1291 limits assumed): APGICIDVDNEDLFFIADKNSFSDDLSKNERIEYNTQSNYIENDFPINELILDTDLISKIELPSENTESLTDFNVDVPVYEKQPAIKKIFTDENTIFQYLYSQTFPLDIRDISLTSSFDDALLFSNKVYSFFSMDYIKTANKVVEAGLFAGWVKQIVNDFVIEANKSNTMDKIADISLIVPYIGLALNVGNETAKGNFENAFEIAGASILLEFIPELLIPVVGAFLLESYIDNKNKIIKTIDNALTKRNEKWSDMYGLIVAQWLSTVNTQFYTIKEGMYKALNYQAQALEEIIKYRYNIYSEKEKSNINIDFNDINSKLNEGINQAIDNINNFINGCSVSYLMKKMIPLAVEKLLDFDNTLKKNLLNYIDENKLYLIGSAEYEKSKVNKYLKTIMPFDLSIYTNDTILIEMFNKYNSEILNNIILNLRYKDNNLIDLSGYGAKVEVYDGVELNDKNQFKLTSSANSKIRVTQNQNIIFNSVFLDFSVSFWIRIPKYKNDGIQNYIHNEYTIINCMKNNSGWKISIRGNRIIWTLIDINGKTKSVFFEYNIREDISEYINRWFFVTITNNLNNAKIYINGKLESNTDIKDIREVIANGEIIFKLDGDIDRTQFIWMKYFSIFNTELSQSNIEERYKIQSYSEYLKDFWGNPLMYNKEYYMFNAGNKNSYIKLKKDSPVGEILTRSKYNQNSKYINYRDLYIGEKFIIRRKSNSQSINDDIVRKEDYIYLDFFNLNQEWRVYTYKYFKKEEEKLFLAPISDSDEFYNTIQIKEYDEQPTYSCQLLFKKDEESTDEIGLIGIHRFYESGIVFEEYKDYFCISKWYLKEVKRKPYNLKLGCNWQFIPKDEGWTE

type E botulinum toxin light chain (BoNT/E-LC), sequence (Q00496 2-422 limits assumed): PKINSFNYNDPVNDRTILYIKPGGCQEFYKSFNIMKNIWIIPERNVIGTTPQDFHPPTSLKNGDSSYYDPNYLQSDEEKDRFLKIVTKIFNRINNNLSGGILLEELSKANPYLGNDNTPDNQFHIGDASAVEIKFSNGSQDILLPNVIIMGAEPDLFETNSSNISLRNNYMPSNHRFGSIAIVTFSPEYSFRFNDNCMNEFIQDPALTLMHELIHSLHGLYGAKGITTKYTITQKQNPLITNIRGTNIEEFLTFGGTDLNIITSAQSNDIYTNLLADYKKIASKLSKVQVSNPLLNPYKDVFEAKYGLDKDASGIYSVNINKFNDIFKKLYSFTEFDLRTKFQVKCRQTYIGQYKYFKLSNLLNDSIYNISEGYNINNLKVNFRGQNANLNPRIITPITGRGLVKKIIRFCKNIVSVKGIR
type A botulinum toxin light chain (BoNT/A-LC), sequence (P0DPI1 2-448 limits assumed): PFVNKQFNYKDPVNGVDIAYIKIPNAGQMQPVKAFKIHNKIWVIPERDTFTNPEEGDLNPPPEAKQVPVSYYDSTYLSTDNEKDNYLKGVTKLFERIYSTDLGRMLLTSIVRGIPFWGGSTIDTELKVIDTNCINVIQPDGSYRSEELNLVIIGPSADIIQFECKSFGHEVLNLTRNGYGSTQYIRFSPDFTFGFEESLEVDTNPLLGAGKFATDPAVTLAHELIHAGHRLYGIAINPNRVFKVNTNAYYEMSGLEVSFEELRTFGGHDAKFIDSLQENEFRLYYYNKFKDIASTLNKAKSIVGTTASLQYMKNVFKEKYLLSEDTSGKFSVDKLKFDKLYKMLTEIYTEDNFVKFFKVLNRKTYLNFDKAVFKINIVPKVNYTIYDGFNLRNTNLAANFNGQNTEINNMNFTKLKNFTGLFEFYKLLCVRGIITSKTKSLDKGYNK
type A botulinum toxin (BoNT/A), sequence (P0DPI1 2-448 limits assumed): as above
type A botulinum toxin (BoNT/A), sequence (P0DPI1 449-1296 limits assumed): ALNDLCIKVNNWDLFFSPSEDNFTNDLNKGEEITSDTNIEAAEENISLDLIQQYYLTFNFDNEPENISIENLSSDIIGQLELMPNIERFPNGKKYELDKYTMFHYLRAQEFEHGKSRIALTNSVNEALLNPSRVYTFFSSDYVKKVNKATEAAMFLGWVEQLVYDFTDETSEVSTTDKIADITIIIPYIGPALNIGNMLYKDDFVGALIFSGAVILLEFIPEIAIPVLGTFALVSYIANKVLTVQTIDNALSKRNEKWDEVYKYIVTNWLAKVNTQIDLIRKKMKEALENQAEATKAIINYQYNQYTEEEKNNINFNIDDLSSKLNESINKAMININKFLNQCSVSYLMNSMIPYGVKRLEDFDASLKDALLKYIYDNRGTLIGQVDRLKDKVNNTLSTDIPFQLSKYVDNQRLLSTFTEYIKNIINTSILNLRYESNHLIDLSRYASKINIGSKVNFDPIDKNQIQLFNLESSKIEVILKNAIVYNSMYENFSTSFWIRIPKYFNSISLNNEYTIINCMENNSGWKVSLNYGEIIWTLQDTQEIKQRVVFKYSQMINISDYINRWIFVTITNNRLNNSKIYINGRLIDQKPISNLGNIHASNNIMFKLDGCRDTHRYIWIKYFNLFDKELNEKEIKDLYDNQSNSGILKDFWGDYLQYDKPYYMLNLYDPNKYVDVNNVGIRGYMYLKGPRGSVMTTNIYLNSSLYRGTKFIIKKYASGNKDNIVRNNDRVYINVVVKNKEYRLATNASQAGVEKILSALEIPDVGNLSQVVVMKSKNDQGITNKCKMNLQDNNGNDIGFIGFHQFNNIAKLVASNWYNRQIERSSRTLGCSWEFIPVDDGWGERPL
BoNT/F-LC, sequence (A7GBG3 1-436 limits assumed): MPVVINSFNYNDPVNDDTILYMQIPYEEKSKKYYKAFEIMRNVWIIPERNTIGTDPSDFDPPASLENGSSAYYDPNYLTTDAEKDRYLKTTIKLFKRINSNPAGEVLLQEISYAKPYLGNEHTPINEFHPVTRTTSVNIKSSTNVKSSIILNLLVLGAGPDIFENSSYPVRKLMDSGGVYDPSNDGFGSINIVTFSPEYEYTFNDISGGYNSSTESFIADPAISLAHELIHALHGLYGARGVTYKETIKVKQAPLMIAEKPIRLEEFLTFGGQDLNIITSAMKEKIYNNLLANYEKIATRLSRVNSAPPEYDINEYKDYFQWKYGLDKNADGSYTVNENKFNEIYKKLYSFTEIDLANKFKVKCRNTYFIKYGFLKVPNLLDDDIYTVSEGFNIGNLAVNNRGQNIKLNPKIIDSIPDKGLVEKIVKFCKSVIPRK
tetanus toxin light chain (TeNt-LC), sequence (P04958 2-457 limits assumed): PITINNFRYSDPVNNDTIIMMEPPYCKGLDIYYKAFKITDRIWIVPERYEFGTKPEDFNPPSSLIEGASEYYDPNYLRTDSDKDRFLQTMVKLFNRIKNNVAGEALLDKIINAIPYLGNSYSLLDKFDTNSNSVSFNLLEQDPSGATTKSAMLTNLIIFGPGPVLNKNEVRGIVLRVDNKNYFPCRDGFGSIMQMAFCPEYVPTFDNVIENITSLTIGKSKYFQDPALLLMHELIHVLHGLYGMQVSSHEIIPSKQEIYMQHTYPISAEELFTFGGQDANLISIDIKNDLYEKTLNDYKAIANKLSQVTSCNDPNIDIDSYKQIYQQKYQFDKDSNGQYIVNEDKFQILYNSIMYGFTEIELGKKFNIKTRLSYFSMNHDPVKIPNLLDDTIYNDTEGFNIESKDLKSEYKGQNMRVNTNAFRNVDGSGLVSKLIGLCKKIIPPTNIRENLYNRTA
type B botulinum toxin light chain (BoNT/B-LC), sequence (P10844 2-441 limits assumed): as the sequence (P10844 2-441 limits assumed) above

Row | SMILES | inhibition at 100 µg/mL [1] [%] | inhibition at 100 µg/mL [2] [%] | inhibition at 100 µg/mL [3] [%] | inhibition at 100 µg/mL (BoNT/F-LC) [%] | inhibition at 200 µg/mL [4] [%] | % survival [7] [%] | further results
1 | O=C(CSc1ncccc1C(=O)[O-])Nc1cc(Cl)ccc1OCc1ccccc1.[K+] [Example 23, sodium] | 78 | 55.7 | 50.7 | 35.8 | 30.3 | – | –
2 | COc1ccc(Cl)cc1NC(=O)CSc1ncccc1C(=O)O [Example 2] | 12.1 | 20.5 | 11.6 | 13.2 | 12.3 | – | –
3 | COC(=O)c1ccc(O)c2nc3c(C=O)c(O)cc(O)c3nc12 [lomofungin] | – | – | – | – | – | – | Ki [5]: 6.7 ± 0.7 µM
4 | O=C(CSc1ncccc1C(=O)[O-])Nc1ccc(OC(F)(F)F)cc1.[K+] [Example 21] | – | – | – | – | – | 40 | % survival [6]: 40%
5 | CCOc1ccccc1NC(=O)CSc1ncccc1C(=O)O [Example 5] | 2.7 | 4.3 | 6.8 | 5 | 8 | – | –
6 | O=C(CSc1ncccc1C(=O)[O-])Nc1cc(Cl)ccc1OCc1ccccc1.[K+] [Example 23] | – | – | – | – | – | 80 | % survival [6]: 100%
7 | O=C(CSc1ncccc1C(=O)[O-])Nc1cc(OC(F)(F)F)ccc1Br.[K+] [Example 26, potassium] | 27.4 | 30 | 12.1 | 13.1 | 17.1 | – | –
8 | O=C(CSc1ncccc1C(=O)[O-])Nc1cc(Br)ccc1Br.[K+] [Example 9] | – | – | – | – | – | 20 | –
9 | O=C(CSc1ncccc1C(=O)[O-])Nc1ccccc1OC(F)(F)F.[K+] [Example 24, potassium] | 8.9 | 29.3 | 5.6 | 11.2 | 13.2 | – | –
10 | O=C(CSc1ncccc1C(=O)[O-])Nc1ccccc1Cl.[K+] [Example 8, potassium] | 25.1 | 35 | 27.6 | 15.3 | 21.1 | – | –
11 | O=C(CSc1ncccc1C(=O)O)Nc1cc(F)ccc1F [Example 22, potassium] | 3.2 | 2.7 | 2.1 | 3.4 | 4.4 | – | –
12 | O=C(CSc1ncccc1C(=O)[O-])Nc1cccc(Cl)c1.[K+] [Example 20] | – | – | – | – | – | 0 | –
13 | O=C(CSc1ncccc1C(=O)[O-])Nc1cc(Br)ccc1Br.[K+] [Example 9, potassium] | 9.3 | 29.2 | 8.2 | 12.1 | 15.2 | – | –
14 | O=C(CSc1ncccc1C(=O)[O-])Nc1cc(OC(F)(F)F)ccc1Br.[K+] [Example 26] | – | – | – | – | – | 20 | –
15 | O=C(CSc1ncccc1C(=O)[O-])Nc1ccc(OC(F)(F)F)cc1.[K+] [Example 21, potassium] | 14.3 | 28 | 20.3 | 16.5 | 17.4 | – | –
16 | COc1ccc(F)cc1NC(=O)CSc1ncccc1C(=O)O [Example 13, potassium] | 20.3 | 22 | 18.3 | 16.4 | 14.6 | – | –
17 | O=C(CSc1ncccc1C(=O)[O-])Nc1cc(F)ccc1Cl.[K+] [Example 18, 2-(2-(5-fluoro-2-chlorophenyl)-2-acetylthio)nicotinate potassium] | 11.4 | 30.2 | 17.2 | 16.2 | 19.3 | 40 | % survival [6]: 0%
18 | COc1ccc(Cl)cc1NC(=O)CSc1cc(C(=O)[O-])ccn1.[K+] [Example 15] | – | – | – | – | – | – | % survival [6]: 80%

Row | SMILES | inhibition at 100 µg/mL [1] [%] | inhibition at 100 µg/mL [2] [%] | inhibition at 100 µg/mL [3] [%] | inhibition at 100 µg/mL (BoNT/F-LC) [%] | inhibition at 200 µg/mL [4] [%] | % survival [7] [%] | further results
19 | O=C(CSc1ncccc1C(=O)[O-])Nc1ccccc1OC(F)(F)F.[K+] [Example 24] | – | – | – | – | – | 80 | –
20 | COc1cc(Cl)cc(NCC(=O)Sc2ncccc2C(=O)[O-])c1.[Na+] [Example 4, 2-(2-(3-chloro-5-methoxyanilino)acetylthio)nicotinate sodium] | 45.4 | 95.5 | 43.2 | 48.6 | 34.5 | 100 | % survival [6]: 100%
21 | O=C(CSc1ncccc1C(=O)[O-])Nc1ccc(Br)cc1.[K+] [Example 12] | – | – | – | – | – | 80 | –
22 | O=C(CSc1ncccc1C(=O)[O-])Nc1ccc(Br)cc1.[K+] [Example 12, potassium] | 9.4 | 29.1 | 12.3 | 13.2 | 16.4 | – | –
23 | O=C(CSc1ncccc1C(=O)O)Nc1ccc(F)cc1 [Example 19, potassium] | 3 | 3 | 6.8 | 4 | 2.7 | – | –
24 | O=C(CSc1ncccc1C(=O)[O-])Nc1cccc(Cl)c1.[K+] [Example 20, potassium] | 6.8 | 41 | 4.2 | 17.8 | 22.2 | – | –
25 | CCCOc1ccc(Cl)cc1NC(=O)CSc1ncccc1C(=O)O [Example 7] | 18.1 | 24.2 | 14 | 11.3 | 20 | – | –
26 | COc1ccc(Cl)cc1NC(=O)CSc1ncccc1C(=O)[O-].[K+] [Example 3] | – | – | – | – | – | 60 | Inhibition rate % [1]: 11.3%; Inhibition rate % [2]: 30.2%; Inhibition rate % [3]: 16.5%; Inhibition rate % (BoNT/F-LC): 19.2%; Inhibition rate % [4]: 20.2%; % survival [6]: 40%
27 | O=C(CSc1ncccc1C(=O)[O-])Nc1ccccc1Cl.[K+] [Example 8] | – | – | – | – | – | 0 | % survival [6]: 80%
28 | O=C(CSc1ncccc1C(=O)O)Nc1cccc(OC(F)(F)F)c1 [Example 25, potassium] | 2.9 | 15.2 | 4.3 | 3 | 5.7 | – | –
29 | COc1ccc(Cl)c(NC(=O)CSc2ncccc2C(=O)[O-])c1.[K+] [Example 14] | – | – | – | – | – | – | % survival [6]: 20%
30 | COc1ccc(OC)c(NC(=O)CSc2ncccc2C(=O)O)c1 [Example 16, potassium] | 17.9 | 20.1 | 5.2 | 9.8 | 16.2 | – | –
31 | CCOc1ccc(Cl)cc1NC(=O)CSc1ncccc1C(=O)O [Example 6] | 14.7 | 8.6 | 16.8 | 6.7 | 4.7 | – | –
32 | O=C(CSc1ncccc1C(=O)O)Nc1ccccc1 [Example 17, 2-(anilino-2-acetylthio)nicotinic Acid] | 15.4 | 3.7 | 18 | 8.3 | 6.4 | – | –
33 | COc1ccc(Cl)cc1NCC(=O)Sc1ncccc1C(=O)[O-].[Na+] [Example 1, 2-(2-(5-chloro-2-methoxyanilino)acetylthio)nicotinate sodium] | 8.4 | 27.8 | 7.32 | 12.2 | 12.8 | 40 | –
34 | COc1ccc(Cl)cc1NC(=O)CSc1cc(C(=O)[O-])ccn1.[K+] [Example 15, potassium] | 3 | 19.4 | 16.3 | 7.2 | 23.5 | – | –
35 | COc1ccc(Cl)c(NC(=O)CSc2ncccc2C(=O)[O-])c1.[K+] [Example 14, potassium] | 19.8 | 24.2 | 13.5 | 9.8 | 12.3 | – | –
